This is an account of results in patent publication US8349791B2, “Polypeptides that bind membrane proteins” (The Trustees of the University of Pennsylvania, priority 2006, dated 2013).

Square brackets hold non-standard residues; d marks the D form. Ends that are not written are not given here.

Assay [1] has as its system gel-filtered human platelets. Kind of assay: Platelet aggregation, turbidometric. The class given is cell-based. The conditions noted are these: gel-filtered human platelets. As to the method:
Platelet-rich plasma, prepared from human blood anti-coagulated with 0.1 volume of 0.13 M sodium citrate, was gel-filtered on Sepharose 2B (Amersham Biosciences, Piscataway, N.J.) using an elution buffer containing 137 mM NaCl, 2.7 mM KCl, 1 mM MgCl2, 5.6 mM glucose, 0.35 mg/ml bovine serum albumin, 3.3 mM NaH2PO4, and 4 mM HEPES (pH=7.4), as previously described. Jordan P et al. Nature 411, 909-917 (2001). Turbidometric measurements of platelet aggregation were performed in a Chrono-Log Lumi-Dual Aggregometer. Aliquots (0.4 ml) of the gel-filtered platelet suspension were supplemented with 200 μg/ml human fibrinogen (Enzyme Research Labs., South Bend, Ind.) and 1 mM CaCl2 (final concentrations) prior to adding platelet agonists. The polypeptide was added from a DMSO solution such that the final concentration of DMSO was no greater than 0.5%. All controls also had 0.5% DMSO in the buffer.

Assay [2] addresses T1, full-length αIIbβ3 integrin (Homo sapiens, UniProt P08514).
T1 construct: The full-length integrin aIIbβ3 protein in buffer
Put plainly: Fluorescence anisotropy titration with full-length integrin. It is filed as binding. As to conditions: N-octyl-β-D-glucopyranoside micelles, 64 nM labelled peptide, 25° C. As for the experimental part:
The full-length integrin aIIbβ3 protein in buffer (7.9 mg/ml, 10 mM HEPES (pH=7.5), 60 mM N-octyl-β-D-glucopyranoside, 0.5 mM CaCl2, 0.02% NaN3) was prepared using the previously reported method. Weisel J W et al. J. Biol. Chem. 267, 16637-16643 (1992). Fluorescence polarization experiments were conducted on an ATF 105 spectrofluorometer (Aviv Biomedical, Inc., Lakewood, N.J.) using a 0.3 cm path length cuvette. Spectra were measured at 25° C. using 1.0 nm slit widths. Excitation at 408 nm was used for the coumarin-labeled polypeptide and the emission maximum at 433 nm was monitored. Anisotropy measurements were recorded upon titration of the integrin αIIbβ3 protein at varying concentrations into a polypeptide solution of 64 nM coum-anti-αIIb or coum-anti-αIIbmut. Data analysis was carried out according to previously described methods. See Yin H et al. J. Am. Chem. Soc. 127, 10191-96 (2005).
(Fluorescence polarisation rises when a labelled molecule tumbles more slowly, as on binding a larger partner.)

The subject of assay [3] is gel-filtered human platelets. The conditions noted are these: cited from earlier work.

As for “KKIFGVLTFLFGYILGALITGAVYWFVQLLAKK [anti-αIIb′]”, the “platelet aggregation response” value in assay [1] is reported as “highly active”.

In the case of “RAWFALFLLIFLGFLLGVATLLVQY ([dR][dA][dW][dF][dA][dL][dF][dL][dL][dI][dF][dL]G[dF][dL][dL]G[dV][dA][dT][dL][dL][dV][dQ][dY]) [d-anti-αIIb]”, the “platelet aggregation response” value in assay [1] is reported as “aggregation of gel-filtered human platelets was induced by increasing concentrations”.

As to “coum-anti-αIIb: 7-hydroxycoumarin-3-carboxamide-labeled anti-αIIb, label attached via a linker to the N-terminus (KKAYVMLLPFFIGLLLGLIFGGAFWGPARHLKK; not fully specified (N-terminus, C-terminus); also: label attached via an unspecified linker)”, in assay [2], the “apparent Kdiss for αIIbβ3” value is reported as 1.3±0.2×10^−5 mole fraction units.

Turning to “αIIb-TM: polypeptide spanning residues Trp968 to Lys989 of αIIb (WVLVGVLGGLLLLTILVLAMWK)”, the “potency as activator of αIIbβ3 / inducer of platelet aggregation relative to anti-αIIb” value in assay [3] is recorded as “substantially less potent”.
